Experiment [1] addresses T1, PAF-binding, dog platelets (Canis lupus familiaris, UniProt A0A8I3NSH0).
T1 construct: dog platelets; from tissue; host or cells: washed platelets from citrated dog blood
T1 sequence (A0A8I3NSH0 1-343): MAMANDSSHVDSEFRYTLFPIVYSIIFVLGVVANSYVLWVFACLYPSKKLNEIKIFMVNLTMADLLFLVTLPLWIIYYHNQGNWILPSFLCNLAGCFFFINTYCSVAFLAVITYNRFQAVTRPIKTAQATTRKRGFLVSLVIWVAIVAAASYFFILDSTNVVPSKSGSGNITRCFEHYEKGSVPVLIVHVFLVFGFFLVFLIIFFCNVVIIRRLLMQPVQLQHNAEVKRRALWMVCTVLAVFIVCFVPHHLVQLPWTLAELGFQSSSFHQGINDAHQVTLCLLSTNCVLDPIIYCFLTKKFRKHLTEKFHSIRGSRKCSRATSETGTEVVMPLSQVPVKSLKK
Kind of experiment: PAF binding assay (radiolabelled H-PAF, washed dog platelets). As to conditions: 10 minutes at room temperature, read-out: PAF-binding IC-50. As for the experimental part:
The binding assay was done in […] polyethylene microcentrifuge tubes (Beckman) containing 50 μl of an oil mixture of 2 parts Siliconol AR200 (Serva): 1 part Silicone Fluid (Arthur H. Thoma). Buffer, standards, or analogs (150 μl total volume) were added to the tubes. Radiolabelled H-PAF (50 μl) was then added to the tubes. The reaction was started by the addition of 50 μl of dog platelets (2×10^7 platelets). The tubes were capped, inverted several times to mix, and incubated for 10 minutes at room temperature. The platelets were separated from the incubation mixture by centrifuging 1 minute in a Beckman Microfuge B centrifuge. The tip of the microfuge tube was cut off, and the platelets were washed out of the tip with 200 μl of 50% methanol (Burdick and Jackson). Aquasol (NEN, 10 ml) was added and the radioactivity in the samples was determined using an LS 8100 Beckman liquid scintillation counter linked to a Techtran tape recorder Data was processed through an in-house computer system. Alternatively, radioactivity was determined using a Searle Mark III liquid scintillation counter linked to a Iso-Data microprocessor.
(b) preparation of platelets
Blood was collected from anesthesized or unanesthesized dogs into 50 ml plastic centrifuge tubes containing 3.8% sodium citrate as the anticoagulant (1 volume of citrate/9 volumes of blood). The red cells were removed by centrifugation for 15 minutes at 600 rpm (100-125 g) at room temperature. An aliquot of the supernatant platelet rich plasma (PRP) was saved for cell counting and the remainder was acidified to pH 6.5 with 0.15M citric acid. The platelet pellet was obtained after a 10 minute centrifugation at 2000 rpm (1000 g) at room temperature. Washed platelets were prepared by resuspending the platelet pellet once with pBS containing 1 mM EDTA, centrifuging as noted, and then resuspending the platelets in 0.1% BSA pBS. An aliquot of the washed platelets was counted. Platelets used for binding assays were diluted to 2×10^7 platelets/assay tube (4×10^8 platelets/ml). platelet countinq was done using a Royco Cell-Crit 921.

Experiment [2] deals with PAF Induced Bronchoconstriction. Description: PAF induced bronchoconstriction assay, intravenous testing. The format is in vivo, guinea pig. As to conditions: Cavia porcellus, iv, 1 min, i.v., 1 minute pretreatment, PAF 1 μg/kg i.v., read-out: Bronchoconstriction ID-50 i.v. As for the experimental part: Male animals (Hartlet Strain, 400-500 g were anesthetized with urethane (2 g/kg, i.p.). Each animals' trachea was cannulated and the guinea pigs were respirated using a Harvard small animal rodent respirator (3.0 cc stroke volume, 40 breaths per min.). Tracheal pressure was recorded from a cannula inserted in the trachea and connected to a Statham pressure transducer.
The jugular vein was cannulated for administering compounds. Spontaneous breathing was arrested with succinylcholine (1.2 mg/kg, i.v.) administered 2 minutes prior to intravenous injection of platelet activating factor PAF).
For the intravenous testing, the guinea pig is given a 1-minute pretreatment with propranolol at a dose of 0.1 mg/kg intravenously. The test compound is administered with a 1 minute pretreatment prior to intravenous challenge with PAF. The animal is then challenged with a 1 μg/kg intravenous dose of PAF and the change in tracheal pressure is measured.
The change in tracheal pressure is determined by subtracting the steady state baseline achieved after administration of succinylcholine from the peak broncho. constriction seen after challenge with PAF. The mean is calculated for each test compound and compared to the mean of the control animals to give the percent inhibition of bronchoconstriction. The standard error is calculated as the standard error of the mean.

Experiment [3] shares this test system. Description: PAF induced bronchoconstriction assay, oral testing. It counts as in vivo, guinea pig. As to conditions: Cavia porcellus, po, 2 hr; for inhibition in vivo at 0.3 mg/kg: at a dose of 0.3 mg/kg p.o.; for ED50: p.o., read-out: Bronchoconstriction ID-50 p.o. 2 hr.
The mark [4] stands for this setting: Table I, triazolothienodiazepines.

pIC50: −log10 of the molar value. Where two headings read alike, the source gives them in different places.

Consider `Cc1nnc2n1-c1sc(C#CCn3c(=O)c4c(ncn4C)n(C)c3=O)cc1C(c1ccccc1Cl)=NC2`, for which the pIC50 in experiment [1] (setting [4]) was 8.15. In addition, in experiment [2] (Table I), the ED50 was 0.018 mg/kg. This compound also showed an inhibition in vivo at 0.3 mg/kg in experiment [3] (Table I) of 38%.

For the compound `Cc1nnc2n1-c1sc(C#CCN3C(=O)C(=O)c4ccccc43)cc1C(c1ccccc1Cl)=NC2`, the pIC50 in experiment [1] (setting [4]) is 8.15. The values for the ED50 in experiment [2] (Table I) and in experiment [3] (Table I) were below 0.1 mg/kg and 0.06 mg/kg, respectively.

Regarding `Cc1nnc2n1-c1sc(C#CCn3c(=O)n(C)c(=O)c4ccccc43)cc1C(c1ccccc1Cl)=NC2`, in experiment [1] (setting [4]), the pIC50 is 9.22. The results for the ED50 in experiment [2] (Table I) and in experiment [3] (Table I) were 0.007 mg/kg and 0.017 mg/kg, respectively.

For the compound `C#Cc1cc2c(s1)-n1c(C)nnc1CN=C2c1ccccc1Cl`, the pIC50 in experiment [1] (setting [4]) was 8.00. Also, the ED50 in experiment [2] (Table I) was found to be 0.02 mg/kg. This compound also showed an inhibition in vivo at 0.3 mg/kg in experiment [3] (Table I) of 17%.

In the case of `Cc1nnc2n1-c1sc(C#CCn3c(=O)n(C)c4ccccc43)cc1C(c1ccccc1Cl)=NC2`, the pIC50 in experiment [1] (setting [4]) is 9.52. Further, the ED50 in experiment [2] (Table I) came to 0.004 mg/kg; in experiment [3] (Table I), 0.043 mg/kg.

As for `Cc1nnc2n1-c1sc(C#CCN3C(=O)COc4ccccc43)cc1C(c1ccccc1Cl)=NC2`, the pIC50 in experiment [1] (setting [4]) is 9.15. For the same compound, the ED50 was found to be 0.007 mg/kg in experiment [2] (Table I) and 0.019 mg/kg in experiment [3] (Table I).

For the compound `Cc1nnc2n1-c1ccc(C#CCN3C(=O)CCc4ccccc43)cc1C(c1ccccc1F)=NC2`, the pIC50 in experiment [1] (Table II, triazolobenzodiazepines) was 7.70. Besides, the results for the ED50 in experiment [2] (Table II) and in experiment [3] (Table II) were 0.015 mg/kg and 0.44 mg/kg, respectively.

Take `Cc1nnc2n1-c1sc(C#Cc3ccccn3)cc1C(c1ccccc1Cl)=NC2`: in experiment [1] (setting [4]), the pIC50 was 6.60. Besides, the ED50 in experiment [2] (Table I) was 0.056 mg/kg. The inhibition in vivo at 0.3 mg/kg in experiment [3] (Table I) was 5%.

With `Cc1nnc2n1-c1sc(C#CCN3C(=O)c4cccc5cccc3c45)cc1C(c1ccccc1Cl)=NC2`, the pIC50 in experiment [1] (setting [4]) was 8.30. In addition, the ED50 in experiment [2] (Table I) is below 0.1 mg/kg; in experiment [3] (Table I) it was 0.042 mg/kg.

`Cc1nnc2n1-c1sc(C#CCN3C(=O)COc4ccc(Cl)cc43)cc1C(c1ccccc1Cl)=NC2`: the pIC50 in experiment [1] (setting [4]) is above 9.00. The ED50 came out at 0.004 mg/kg in experiment [2] (Table I) and 0.049 mg/kg in experiment [3] (Table I).

For the compound `Cc1nnc2n1-c1sc(C#CCn3ccc4ccccc4c3=O)cc1C(c1ccccc1Cl)=NC2`, the pIC50 in experiment [1] (setting [4]) is 9.00. Moreover, the ED50 amounted to 0.007 mg/kg in experiment [2] (Table I) and 0.029 mg/kg in experiment [3] (Table I).

In general, inhibition in vivo refers to the change of the read-out against control, counted positive when it falls. High values mean a response far below the control, low ones a response near the control.

Source of the values: patent publication US4959361A, “Triazolo(4,3-A)(1,4)benzodiazepines and thieno (3,2-F)(1,2,4)triazolo(4,3-A)(1,4)diazepine compounds which have useful activity as platelet activating factor (PAF) antagonists” (Hoffmann-La Roche Inc., priority 1988, dated 1990).
